In patent publication US7498292B2, “Combinatorial libraries of autoinducer analogs, autoinducer agonists and antagonists, and methods of use thereof” (The Research Foundation of State University of New York, priority 2002, dated 2009):
“Also recorded” adds a separate entry of the source.

Assays:
PAO1 (pTdK-GFP) biofilm = assay: static biofilm assay, PAO1 (pTdK-GFP); format: cell-based, P. aeruginosa
Protocol: Compound 3 was tested for its effect on biofilm development in a 24-hour assay that looks at the early stages of biofilm formation. […] Cultures were grown at 37° C. with shaking for 30 minutes, and then allowed to sit at 37° C. for an additional 23.5 hours. Coverslips were then rinsed and placed on slides for visualization using an MRC1024 Laser Scanning Microscope (BioRad) with a Nikon Fluor-60X oil emersion objective lens (NA=1.4), 488 nm Argon Laser and OG515 filter.
The same assay was run with strain PAO-1 (pTdK-GFP), and no exogenous autoinducers were added. […] The above results provide additional evidence that compound 3 interferes with QS signaling and reduces the production of important virulence factors.

pyocyanin [1] = assay: pyocyanin assay, strain PAO-JP2; format: cell-based, P. aeruginosa PAO-JP2; conditions: PAO-JP2, 25 μM each of AI1 and AI2, 18 hours
Protocol: (§1) For the pyocyanin assay, cells were grown overnight in LB then washed in fresh media and diluted to an OD600 of 0.05. This culture was grown for 3-4 hours to mid-log phase (OD600 of 0.3-0.5), then diluted to an OD600 of 0.05, and aliquoted to test tubes containing an appropriate amount of test compound(s). Following 18 hours of growth, pyocyanin was extracted from filtered culture supernatants and quantified using standard methods (Essar et al., J. Bacteriol. 172:884-900 (1990), which is hereby incorporated by reference in its entirety).

P. aeruginosa = assay: cell growth in the reporter assay; format: cell-based; conditions: concentrations up to 400 μM
Protocol: Based on the above hypothesis, a competition assay of 2 and 3 against AI1, using strain PAO-JP2 (plasI-LVAgfp), was performed. […] It should be noted that this inhibition experiment was performed with competition against 1 μM AI1, a concentration typically produced by wild type P. aeruginosa (Pearson et al., Proc. Natl Acad. Sci. USA 92:1490-1494 (1995), which is hereby incorporated by reference in its entirety). […] It should also be noted that cell growth was not affected by the addition of 2 or 3 at concentrations up to 400 μM. Thus, it appears that compounds 2 and 3 act as specific inhibitors of QS controlled promoters. Compound 6 was also tested for its ability to compete against AI2, but no inhibition of the rhlI-gfp reporter gene was seen.

LasR = biological target: T1, LasR (Pseudomonas aeruginosa, UniProt P25084); assay: lasI-gfp reporter agonist assay, PAO-JP2 (plasI-LVAgfp); format: cell-based, P. aeruginosa; conditions: PAO-JP2 (plasI-LVAgfp), compounds made in solution phase, increasing concentrations (1, 100, 400 μM)
T1 construct: endogenous in cells; host or cells: P. aeruginosa PAO-JP2 (lasI, rhlI) harboring plasI-LVAgfp
T1 sequence (P25084 whole entry): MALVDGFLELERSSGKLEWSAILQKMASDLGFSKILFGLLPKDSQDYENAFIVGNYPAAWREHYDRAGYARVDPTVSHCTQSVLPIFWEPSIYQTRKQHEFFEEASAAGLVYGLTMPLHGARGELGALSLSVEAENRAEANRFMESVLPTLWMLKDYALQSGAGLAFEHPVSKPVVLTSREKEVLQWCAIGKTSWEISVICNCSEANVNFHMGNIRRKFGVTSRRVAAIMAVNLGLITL
Text: Since this strain lacks the ability to produce natural AIs due to disruption of both AI synthase genes, activation of LasR relies on the addition of exogenous AI1. Expression of gfp (encoding green fluorescent protein) is under control of the LasR-AI1 inducible lasI promoter, allowing rapid screening for LasR agonists by measuring the level of GFP expression in their presence.
P. aeruginosa strain PAO-JP2 (lasI, rhlI) (Rahme et al., Science 268:1899-1902 (1995), which is hereby incorporated by reference in its entirety) harboring plasI-LVAgfp (Pearson et al., Proc. Natl Acad. Sci. USA 91:197-201 (1994), which is hereby incorporated by reference in its entirety) was grown at 37° C. in LB with 300 μg/ml carbenicillin. For agonist assays, an overnight culture was diluted to an OD600 of 0.1 and transferred to wells of a 96-well plate on which test compounds had previously been added and dried. The final concentration of each analog tested was roughly 400 μM, although this is an overestimate due to purity issues. Cells were then incubated for 6 hours at 37° C. with vigorous shaking. GFP expression was detected with a Molecular Imager (BioRad) (488 nm excitation and 695 nm bandpass filter) and quantified with ImageQuant software. The OD600 of cultures was determined to normalize GFP expression to cell density.
Reporter strains were grown overnight in LB plus 300 μg/ml carbenicillin at 37° C. and diluted to an OD600 of 0.1. Following an incubation of 1 hour, 200 μl of cell culture was added to individual wells of a 96 well plate containing appropriate amount of test compound(s). Plates were incubated for 6 hours and then scanned for fluorescence emission with a Molecular Imager (488 nm excitation and 695 nm bandpass filter). Fluorescence was quantified with ImageQuant software.

Elastase B [2] = assay: elastase (Elastin Congo Red) assay, wild type strain PAO1; format: cell-based, P. aeruginosa PAO1; conditions: wild type PAO1, 100 μM compound
Protocol: (§2) Pyocyanin, elastase, and biofilm were assayed as previously described (Smith et al., Chem. Biol. 10:81-89 (2003), which is hereby incorporated by reference in its entirety). Elastase activity produced by P. aeruginosa in the presence of AIs and competing 3-oxo-C12-D10 was determined by measuring breakdown of the substrate Elastin Congo Red.
(§3) For the elastase B assay, cells (PAO-JP2) were grown overnight in PTSB media (5% Peptone, 0.1% Tryptic Soy Broth) at 37° C., washed and diluted to an OD600 of 0.05, grown to mid-log phase, washed again, and re-suspended to an OD600 of 0.05. The culture was then added to test tubes containing test compound(s) and grown for 6 hours. Elastase B activity was quantified by incubation of 100 μl of filtered culture supernatant with 5 mg Elastin Congo Red substrate and 1 ml of 10 mM Tris pH 7.2, 1 mM CaCl2 for 6 hours at 37° C. with agitation. Elastase B activity is represented by the OD495 of the enzyme assay following reaction quenching with EDTA and centrifugation to remove unreacted substrate, divided by the OD600 of the cell culture. The same assay was run with strain PAO-1, however no exogenous autoinducers were added.

Elastase B [3] = assay: elastase (Elastin Congo Red) assay, strain PAO-JP2; format: cell-based, P. aeruginosa PAO-JP2; conditions: PAO-JP2, 50 μM compound, 5 μM AI1 and 10 μM AI2
Protocol: as §2, §3

pyocyanin [4] = assay: pyocyanin assay, wild type strain PAO1; format: cell-based, P. aeruginosa PAO1; conditions: wild type PAO1, no AIs added
Protocol: as §1

CCCCCCCCCC(=O)CC(=O)NC1CCCCC1=O (racemic) [Compound 3, N-(2-oxocyclohexyl)-3-oxododecanamide]
effect on biofilm morphology (PAO1 (pTdK-GFP) biofilm; wild type PAO1): noticeable difference in biofilm morphology | effect on biofilm formation (PAO1 (pTdK-GFP) biofilm; wild type PAO1, no exogenous autoinducers): less obvious | effect on pyocyanin production (pyocyanin [1]): nearly complete inhibition | effect on cell growth (P. aeruginosa): not affected | agonist activity (induction of lasI-gfp reporter) (LasR): nearly unable to induce the reporter; also recorded: no agonist activity | elastase activity, % of the control level (Elastase B [2]): 30% | elastase activity, % of the positive control level (Elastase B [3]): 60% | effect on pyocyanin production (pyocyanin [4]): very similar inhibitory effect
